One test deals with b-Raf(V600E) (Homo sapiens (Human), UniProt P15056, V600E). The note with it: read-out: b-Raf IC-50; Table 2; Alpha Screen phospho-MEK, reaction 3 hours.
Test [1] addresses C-Raf FL (full-length C-Raf protein) (Homo sapiens (Human), UniProt P04049, Y340E/Y341E). The class given is biochemical. To be noted: Table 2, Alpha Screen phospho-MEK, reaction 1 hour, read-out: c-Raf FL IC-50.

Sequence of b-Raf(V600E) (P15056 whole entry V600E): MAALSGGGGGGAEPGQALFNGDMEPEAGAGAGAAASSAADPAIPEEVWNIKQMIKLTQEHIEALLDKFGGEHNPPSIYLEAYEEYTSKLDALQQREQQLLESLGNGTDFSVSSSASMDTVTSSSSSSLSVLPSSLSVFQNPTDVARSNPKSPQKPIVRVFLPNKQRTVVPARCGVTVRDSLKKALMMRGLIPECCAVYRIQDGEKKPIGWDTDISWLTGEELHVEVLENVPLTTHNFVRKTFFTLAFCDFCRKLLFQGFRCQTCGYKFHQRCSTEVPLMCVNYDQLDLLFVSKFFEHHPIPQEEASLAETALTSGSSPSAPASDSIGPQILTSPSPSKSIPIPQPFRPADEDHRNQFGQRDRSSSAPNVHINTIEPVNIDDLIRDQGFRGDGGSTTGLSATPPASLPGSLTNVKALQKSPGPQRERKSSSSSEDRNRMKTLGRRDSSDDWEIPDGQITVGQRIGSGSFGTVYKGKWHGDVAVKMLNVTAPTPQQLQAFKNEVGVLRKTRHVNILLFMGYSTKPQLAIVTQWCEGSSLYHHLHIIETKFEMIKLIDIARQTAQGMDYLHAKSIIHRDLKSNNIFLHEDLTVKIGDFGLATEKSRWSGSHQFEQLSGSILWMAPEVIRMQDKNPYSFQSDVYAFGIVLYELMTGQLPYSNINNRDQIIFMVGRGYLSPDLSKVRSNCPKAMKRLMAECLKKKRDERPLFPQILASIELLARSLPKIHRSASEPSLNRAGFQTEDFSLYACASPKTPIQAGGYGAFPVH

Regarding “N-(4-methyl-3-(5-morpholino-6-((tetrahydro-2H-pyran-4-yl)oxy)pyridazin-3-yl) phenyl)-6-(trifluoromethyl) pyridazine-4-carboxamide [Example 577]”, the IC50 on b-Raf(V600E) was found to be 0.6 nM.

Turning to `Cc1ncc(NC(=O)c2cccc(C(F)(F)F)c2)cc1-c1cc(N2CCOCC2)nc(NC[C@@H](C)O)n1` [Example 743, (R)—N-(5-(2-((2-hydroxypropyl)amino)-6-morpholinopyrimidin-4-yl)-6-methylpyridin-3-yl)-3-(trifluoromethyl) benzamide], on b-Raf(V600E), the IC50 came out at 3.7 nM.

Consider “N-(4-methyl-3-(7-morpholino-2-oxo-2,3-dihydrobenzo[d]oxazol-5-yl) phenyl)-3-(trifluoromethyl) benzamide [Example 827]”, for which the IC50 in test [1] was found to be 0.2 nM.

For the origin of these results see US10709712B2, “Biaryl amide compounds as kinase inhibitors” (NOVARTIS AG, priority 2013, dated 2020).
